# Earlier results as cited in patent publication US11608326B2, “Synthetic receptors for ionophoric compounds” (Universiteit Gent, priority 2018, dated 2023).
# Experiments:
# [1] = system: human neural (Paju) cells
# human leukemia cells = conditions: 3 μM, overnight incubation
substance,measurement,setting,value
beauvericin,concentration sufficient to cause depolarization,[1],low μM concentrations
same,drop of survival rate,human leukemia cells,80%
